# Results as given in patent publication US11352396B2, “Antimicrobial peptides and methods of using same” (Zoetis Services LLC, priority 2017, dated 2022).
# Residues, ends and D or L forms follow the SMILES beside them.
# Assays:
# E. coli ATCC 25922 = format: cell-based; conditions: ATCC 25922
# Description: (§1) Peptides according to SEQ ID NOs as listed in Table 1 were prepared by a commercial manufacturer (CS Bio, Menlo Park, Calif.) using solid phase synthesis. Antimicrobial activity was assessed by determining the Minimal Inhibitory Concentration (MIC) against S. aureus and E. coli. Briefly, Microbroth MICs were performed using CLSI methodology (VET01-S2). For S. aureus and E. coli ATCC strains, TSA with 5% lysed horse blood agar was used for overnight culturing at 37° C. ambient air. A 0.5 mM stock for each peptide was made with cell culture water, 0.01% acetic acid and serially diluted and spotted (10 μL) in a 96-well plate for in assay dose titration concentration of 50 μM to 0.05 μM. 0.5 McFarland Standard of each strain was diluted 1:250 in Mueller-Hinton Broth (MHB). 90 μL of culture suspension was then added upon drug in the 96-well plate for overnight incubation for 18-20 hours. The MIC was determined visually at the first well of no visible growth at the corresponding concentration.
# S. aureus ATCC 29213 = format: cell-based; conditions: ATCC 29213
# Description: as §1
# [1] = test system: MRSP (Methicillin-Resistant Staphylococcus pseudintermedius); experiment: MIC against selected strains of MRSP; format: cell-based; set-up: key to MIC MRSP 88493 / MIC MRSP 72035 / MIC MRSP 81926: MIC in μM; key to MIC MRSP 71994 / MIC MRSP 79882 / MIC MRSP 80729 / MIC MRSP 86002: MIC in μM (first well with no visible growth); key to MIC MRSP 72192 / MIC MRSP 76923 / MR 71994 / Mr 88493 / MR 72035 / MR 72192 / MR 76923 / MR 79882 / MR 80279 / MR 81926 / MR 86002 / MR 87665: MIC in μM (visual, first well with no growth); MIC MRSP 87655: unit not given beside the values; conditions: for MIC MRSP 71994: strain 71994, Table 4; for MIC MRSP 72035: strain 72035, Table 4; for MIC MRSP 72192: strain 72192, Table 4; for MIC MRSP 76923: strain 76923, Table 4; for MIC MRSP 79882: strain 79882, Table 4; for MIC MRSP 80729: strain 80729, Table 4; for MIC MRSP 81926: strain 81926, Table 4; for MIC MRSP 86002: strain 86002, Table 4; for MIC MRSP 87655: strain 87655, Table 4; for MIC MRSP 88493: strain 88493, Table 4
# Description: as §1
# (§2) Antimicrobial activity of the peptides listed in Table 2 against different strains of MSSP (Methicillin-Susceptible Staphylococcus pseudintermedius) and MRSP (Methicillin-Resistant Staphylococcus pseudintermedius) was further assessed. The results are in Tables 3 and 4, respectively.
# cRBC = format: cell-based, canine
# Description: SEQ ID NO: 1 was selected for further research. Toxicity of SEQ ID NO: 1 to eukaryotic blood cells was compared to that of tachyplesin (SEQ ID NO: 13). A standard, well referenced red blood cell hemolysis assay was employed against multiple species to test the lysis potential of the peptides. Red blood cells (RBCs) were prepared and isolated by several centrifuge and wash steps to remove the plasma fraction. A dose titration (50 μM to 0.05 μM) of test peptides and control peptide melittin were spotted from 50 mM stocks in a 384 well plate. Prepared RBCs were incubated with peptide for one hour at 37° C. Percent hemolysis was measured by optical density at 405 nm and utilizing 1% TritonX100 as hundred percent effect (HPE) and phosphate buffer alone as zero percent effect (ZPE).
# [2] = test system: MSSP (Methicillin-Susceptible Staphylococcus pseudintermedius); experiment: MIC against selected strains of MSSP; format: cell-based; set-up: key to MIC MSSP 84658 / MIC MSSP 86000 / MIC MSSP 71990 / MIC MSSP 72036 / MIC MSSP 78032: MIC in μM; key to MIC MSSP 86001 / MIC MSSP 72191 / MIC MSSP 76986 / MIC MSSP 77378: MIC in μM (first well with no visible growth); MIC MSSP 49051 / MIC MSSP 81923 / MIC MSSP 84250 / Effect on MSSP 86000 / Effect on MSSP 72036 / Effect on MSSP 78032: unit not given beside the values; conditions: for MIC MSSP 49051: strain 49051, Table 3; for MIC MSSP 71990: strain 71990, Table 3; for MIC MSSP 72036: strain 72036, Table 3; for MIC MSSP 72191: strain 72191, Table 3; for MIC MSSP 76986: strain 76986, Table 3; for MIC MSSP 77378: strain 77378, Table 3; for MIC MSSP 78032: strain 78032, Table 3; for MIC MSSP 81923: strain 81923, Table 3; for MIC MSSP 84250: strain 84250, Table 3; for MIC MSSP 84658: strain 84658, Table 3; for MIC MSSP 86000: strain 86000, Table 3; for MIC MSSP 86001: strain 86001, Table 3
# Description: as §1, §2
# [3] = test system: Canine-derived epithelial keratinocyte (CPEK) cells; format: cell-based
# Description: Safety of the peptides listed in table 2 was determining by measuring cell viability. Canine-derived epithelial keratinocyte (CPEK) cells were propagated to determine cell viability in the presence of peptides. Cells were grown from a frozen stock in CnT-09-5 (with supplements) pre-warmed media in a T75 flask and incubated overnight at 37° C., 5% CO2. Cells were washed with phosphate buffer and replenished with pre-warmed CnT-05-9 media and repeated for several days until cells reached a density of 6.6×10^4 cells/mL. Cells were then transferred to a 384 well plate, allowed to settle and dosed with peptides and melittin control peptide (50 μM to 0.05 μM) and incubated overnight at 37° C., 5% CO2. 0.1% TritonX100 as (HPE) and phosphate buffer alone as (ZPE) were added to the plates to calculate percent effect once the assay was terminated with 10 μL CELLTITER-GLO® assay reagents for a luminescent readout.
Compound,MIC MRSP 71994 [1],MIC MRSP 72035 [1],MIC MRSP 72192 [1],MIC MRSP 76923 [1],MIC MRSP 79882 [1],MIC MRSP 80729 [1],MIC MRSP 81926 [1],MIC MRSP 86002 [1],MIC MRSP 87655 [1],MIC MRSP 88493 [1],cRBC (50 μM) (cRBC),MIC MSSP 49051 [2],MIC MSSP 71990 [2],MIC MSSP 72036 [2],MIC MSSP 72191 [2],MIC MSSP 76986 [2],MIC MSSP 77378 [2],MIC MSSP 78032 [2],MIC MSSP 81923 [2],MIC MSSP 84250 [2],further results
"CC(C)[C@H](NC(=O)[C@H](CS)NC(=O)[C@H](Cc1ccccc1)NC(=O)CNC(=O)[C@H](CC(N)=O)NC(=O)[C@H](CCCCN)NC(=O)[C@H](CS)NC(=O)[C@H](CCCCN)NC(=O)[C@H](CS)NC(=O)CNC(=O)[C@H](CCCCN)NC(=O)[C@@H](N)CCCNC(=N)N)C(=O)N[C@@H](CS)C(=O)N[C@@H](CCCNC(=N)N)C(N)=O [SEQ ID NO: 65, RKGCKCKNGFCVCR-NH2] (H-RKGCKCKNGFCVCR-NH2; N-terminus assumed)",–,–,–,–,–,–,–,–,–,–,–,–,–,–,–,–,–,–,–,–,MIC E. coli ATCC 25922 (E. coli ATCC 25922): 6.25 µM; MIC S. aureus ATCC 29213 (S. aureus ATCC 29213): 50 µM
96 (KWCFRVCYGRICYRRCRD; Artificial Antimicrobial peptide) [compound 96],1.6,1.6,1.6,1.6,1.6,1.6,1.6,1.6,1.6,1.6,101.4,1.6,1.6,1.6,1.6,1.6,0.8,1.6,1.6,1.6,MIC MSSP 84658 [2]: 1.6; MIC MSSP 86000 [2]: 1.6; MIC MSSP 86001 [2]: 1.6; CPEK (50 μM) [3]: 51.9
8 (KWCFRVCYRGACYRRCRD; Artificial Antimicrobial peptide) [compound 8],1.6,1.6,1.6,1.6,1.6,1.6,1.6,1.6,1.6,1.6,30.2,1.6,1.6,1.6,1.6,1.6,0.8,1.6,3.1,1.6,MIC MSSP 84658 [2]: 1.6; MIC MSSP 86000 [2]: 1.6; MIC MSSP 86001 [2]: 1.6; CPEK (50 μM) [3]: 24.6
9 (KWCFRVCYRGFCYRRCRD; Artificial Antimicrobial peptide) [compound 9],1.6,1.6,1.6,1.6,0.8,1.6,1.6,1.6,1.6,1.6,101.3,1.6,1.6,0.8,1.6,0.8,0.4,0.8,1.6,1.6,MIC MSSP 84658 [2]: 1.6; MIC MSSP 86000 [2]: 0.8; MIC MSSP 86001 [2]: 0.8; CPEK (50 μM) [3]: 52.3
2 (RWCFRVCYRGICYRRCRD; Artificial antimicrobial peptide) [compound 2],1.6,1.6,1.6,1.6,0.8,1.6,1.6,1.6,1.6,1.6,64.0,1.6,1.6,1.6,1.6,1.6,1.6,1.6,3.1,1.6,MIC MSSP 84658 [2]: 3.1; MIC MSSP 86000 [2]: 1.6; MIC MSSP 86001 [2]: 1.6; CPEK (50 μM) [3]: −1.7
10 (KWCFRVCYRGICYHRCRD; Artificial Antimicrobial peptide) [compound 10],1.6,1.6,1.6,1.6,0.8,1.6,1.6,1.6,1.6,1.6,101.1,1.6,1.6,1.6,1.6,1.6,0.8,1.6,1.6,1.6,MIC MSSP 84658 [2]: 1.6; MIC MSSP 86000 [2]: 1.6; MIC MSSP 86001 [2]: 1.6; CPEK (50 μM) [3]: 31.5
"CC(C)C[C@H](NC(=O)[C@H](CCCNC(=N)N)NC(=O)CNC(=O)CNC(=O)[C@@H](N)CCCNC(=N)N)C(=O)N[C@@H](CS)C(=O)N[C@@H](Cc1ccc(O)cc1)C(=O)N[C@@H](CS)C(=O)N[C@@H](CCCNC(=N)N)C(=O)N[C@@H](CCCNC(=N)N)C(=O)N[C@@H](CCCNC(=N)N)C(=O)N[C@@H](Cc1ccccc1)C(=O)N[C@@H](CS)C(=O)N[C@H](C(=O)N[C@@H](CS)C(=O)N[C@H](C(=O)NCC(=O)N[C@@H](CCCNC(=N)N)C(=O)O)C(C)C)C(C)C [SEQ ID NO: 92, RGGRLCYCRRRFCVCVGR] (H-RGGRLCYCRRRFCVCVGR-OH; N-terminus and C-terminus assumed)",–,–,–,–,–,–,–,–,–,–,–,–,–,–,–,–,–,–,–,–,MIC E. coli ATCC 25922 (E. coli ATCC 25922): 3.1 µM; MIC S. aureus ATCC 29213 (S. aureus ATCC 29213): 3.1 µM
